The test concerns CEM cells HIV-1 protection, formazan growth assay. Kind of test: NCI AIDS Antiviral Assay. To be noted: for IC50: measured here: growth of uninfected CEM cells. In outline: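 Category rules: moderately active means at least 50% protection on retest, and confirmed active means 100% protection reproducibly. The underlying data came from a formazan growth assay in HIV-1-infected CEM cells.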

SMILES strings stand for the structures. Values joined by “and” are separate entries in the source; they are usually repeats but may differ in a detail not shown here. Identical values can stand only once. Active and inactive are the calls of the source.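 Rule for the calls: active = compounds giving half or more protection of infected cells from virus-caused growth loss, again on retest; inactive = the rest.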 Where a SMILES comes first, the peptide text is derived from it. The star is where a group is joined. Cbz = O=C(OCc1ccccc1)* Some results are limits rather than exact numbers.

For `COc1cc(C2C(=O)C(Cl)N2Nc2nc(C)cc(=O)[nH]2)cc(OC)c1OC` (stereo unspecified), the EC50 is over 66.1 µM and the IC50 stood at 9.77 µM.

As for `c1ccc(C(NC2=NCCO2)C2CC2)cc1` (stereo unspecified), the EC50 was over 200 µM and the 50% inhibitory concentration (IC50) came to 45.7 µM.

With `COc1ccccc1NC(=S)N/C=C(\C#N)S(=O)(=O)c1ccc(C)cc1`, the EC50 was over 200 µM and the IC50 is over 200 µM.

On to `Nc1ccccc1C(=O)NNC(=O)c1ccccc1O`, for which the EC50 is over 200 µM and the IC50 came out at 16.6 µM.

Consider `Cc1ccc(S(=O)(=O)OCC2OC(OC3(CO)OC(COS(=O)(=O)c4ccc(C)cc4)C(O)C3O)C(O)C(O)C2O)cc1` (stereo unspecified), for which the EC50 is over 200 µM and the half-inhibitory concentration (IC50) was over 200 µM.

As for `COc1cc2c(cc1C)n(O)c(C)c(C(=O)C/C(=N/NC(=O)C[N+](C)(C)C)C(=O)Nc1cccc(Cl)c1C)[n+]2=O`, the EC50 is over 12 µM and the IC50 was over 12 µM.

On to `c1ccc(COc2nc3ccc(C45CC6CC(CC(C6)C4)C5)cc3[nH]2)cc1`, for which the EC50 was over 200 µM and the IC50 is 7.41 µM.

`CSc1n[nH]c(NC(=O)c2cccc(C(F)(F)F)c2)n1`: the EC50 was over 44.7 µM and the IC50 was over 44.7 µM.

For the compound `CCOC(=O)CNC(=O)C(NC(=O)C1CCCN1C(=O)OCc1ccccc1)C(C)CC` (stereo not drawn) (Cbz-Pro-Ile-Gly-OEt; configuration not given here), the EC50 is over 562 µM and the IC50 came out at 34.7 µM.

`O=C(O)CSc1n[nH]c(-c2ccco2)n1`: the EC50 was over 224 µM and the IC50 is over 224 µM.

For `CC(C)(C)OC(=O)[C@@H]1CCC(=O)N1C1(c2ccccc2)c2ccccc2-c2ccccc21`, the EC50 was over 200 µM and the IC50 amounted to 141 µM.

With `O=C1NC(c2ccco2)N2C(=O)NC(c3ccco3)N12` (stereo unspecified), the outcome was inactive.

For the compound `O=C(CCCC[n+]1ccccc1)Sc1ccccc1C(=O)Nc1ccc(S(=O)(=O)Nc2ccccn2)cc1`, the concentration giving a half-maximal response (EC50) is 26.9 µM and the IC50 came to 115 µM.

In the case of `Cc1cn(C2CC(C)N(CCO)O2)c(=O)[nH]c1=O` (stereo unspecified), the EC50 was over 200 µM and the IC50 was over 200 µM.

Take `CC(C)c1c(P(=O)(c2ccccc2)c2ccccc2)n(C)c2ccccc12`: the EC50 is over 100 µM and the concentration for half-maximal inhibition (IC50) turned out to be 41.7 µM.

In the case of `Cc1ccccc1N=Cc1ccc(N(CCC#N)S(=O)(=O)c2ccccc2)cc1`, the EC50 was over 617 µM and the IC50 was 479 µM.

As to `Nc1ccc2ncc(NCc3ccc(F)cc3)nc2c1`, the EC50 is over 135 µM and the IC50 stood at 69.2 µM.

Turning to `c1ccc2c(c1)nnn2CNc1ccc(N2CCCCC2)cc1`, the EC50 is over 200 µM and the IC50 worked out at 51.3 µM.

In the case of `CC(C)(C)C(=O)/C=C/c1cccc(F)c1`, the result was inactive.

As for `CC1(O)C2(c3ccccc3)CCC[N+]1(C)CC2` (stereo unspecified), the outcome was inactive.

Take `CN1C(=O)C2CC(O)C(SC3CC4C(=O)N(C)C(=O)C4CC3O)CC2C1=O` (stereo unspecified): the EC50 was over 200 µM and the IC50 was over 200 µM.

For the compound `Cc1cc(C)c2c(c1)CC2NC(=O)Cc1ccccc1` (stereo unspecified), the EC50 was over 26.9 µM and the IC50 was over 26.9 µM.

On to `COc1cc(N=NN(C)C)c(C(C)c2c3cc(OC)c(OC)cc3cc[n+]2C)cc1OC` (stereo unspecified), for which the EC50 is over 200 µM and the IC50 was 20.9 µM.

With `OC(CC(O)(C(F)(F)F)C(F)(F)F)C(O)c1ccco1` (stereo unspecified), the EC50 was over 200 µM and the IC50 worked out at 58.9 µM.

`Cc1c(C(=O)C/C(=N/NC(=O)CC#N)C(N)=O)[n+](=O)c2ccccc2n1[O-]`: the EC50 was over 26.9 µM and the IC50 is over 26.9 µM.

In the case of `CCOC(=O)c1c(SC(=O)c2ccc(Cl)cc2)n(-c2ccccc2)c(=S)n(-c2ccccc2)c1=O`, the EC50 is over 200 µM and the IC50 was 141 µM.

Take `O=c1oc2ccc([N+](=O)[O-])cc2cc1-c1csc(-c2ccccc2)n1`: the outcome was inactive.

Consider `CSc1c(N(C)C)c(=O)c1=S`, for which the EC50 is over 200 µM and the IC50 stood at 4.9 µM.

Take `Cc1nc(N)sc1C(=O)/C=C/c1ccc(/C=C/C(=O)c2sc(NC(=O)CCCCCCCCC(=O)Nc3nc(C)c(C(=O)/C=C/c4ccc(/C=C/C(=O)c5sc(N)nc5C)cc4)s3)nc2C)cc1`: the EC50 was over 251 µM and the IC50 was 162 µM.

On to `CNc1ccc(Cl)cc1C(=O)N1CCC[C@H]1CO`, for which the EC50 is over 200 µM and the IC50 is over 200 µM.

`Cc1nc(Nc2ccccc2)sc1C(=O)NNC(N)=O`: the EC50 was over 151 µM and the half-inhibitory concentration (IC50) is 63.1 µM.

Regarding `COc1cc(=O)cc2n(c1=O)CCC2`, the EC50 was over 447 µM and the IC50 was over 447 µM.

Turning to `CN1CCC(OC(c2ccccc2)c2ccc(Cl)cc2)C1` (stereo unspecified), the result was inactive.

`[Co+2].[O-]c1ccccc1C=NCc1ccccc1.[O-]c1ccccc1C=NCc1ccccc1`: the EC50 is over 19.5 µM and the IC50 was over 19.5 µM.

As for `CC(C(=O)N1C(=O)N(C(=O)C(C)C(O)c2ccccc2)C2CCCCC21)C(O)c1ccccc1` (stereo unspecified), the EC50 was over 200 µM and the IC50 was 120 µM.

In the case of `CC(=O)/C(=C/n1ccc(=O)[nH]c1=S)C(=O)Nc1ccccc1C`, the EC50 is over 200 µM and the 50% inhibitory concentration (IC50) was over 200 µM.

On to `O=C1c2ccccc2C(=O)c2c(S)cccc21`, for which the EC50 was 148 µM and the IC50 was over 200 µM.

`O=C1/C(=C/c2ccc(Cl)c(Cl)c2)CN(C(=O)CCN2CCOCC2)C/C1=C\c1ccc(Cl)c(Cl)c1`: the EC50 was over 22.9 µM and the IC50 amounted to 0.12 µM.

Take `O=C1CCSc2c(cnc3ccccc23)N1`: the EC50 is over 200 µM and the IC50 was over 200 µM.

`O=C1C=C(c2ccccc2)Sc2ccccc2N1`: the EC50 is over 89.1 µM and the concentration for half-maximal inhibition (IC50) turned out to be 47.9 µM.

With `Cc1ccc2nc(-c3ccc(N=Nc4cc(S(=O)(=O)O)c5ccccc5c4O)cc3)sc2c1S(=O)(=O)O`, the EC50 is over 50.1 µM and the IC50 was over 50.1 µM.

For the compound `O=[N+]([O-])C(C(Cl)=C(Cl)Cl)=C(n1nnc2ccccc21)n1nnc2ccccc21`, the EC50 is over 200 µM and the IC50 worked out at 26.9 µM.

Take `Cc1cn2c(=O)c3ccccc3nc2s1`: the EC50 is over 4.79 µM and the IC50 is over 4.79 µM.

For `O=C(Nc1ccccc1C(=O)O)/C(=C/c1ccccc1)NC(=O)c1ccccc1`, the EC50 was over 200 µM and the IC50 was over 200 µM.

For the compound `CCC1CC2CN3CCc4c([nH]c5ccccc45)C(C(=O)OC)(C2)C13` (stereo unspecified), the result was inactive.

For `O=S(=O)(O)CCCCCO`, the EC50 was over 200 µM and the IC50 was over 200 µM.

Turning to `CC(=O)Nc1ccc(S(=O)(=O)n2oc(=O)c(-c3ccccc3)c2N)cc1`, the EC50 is over 200 µM and the IC50 came out at 105 µM.

As for `O=C(SC1=NCCS1)SC1=NCCS1`, the result was inactive.

Consider `O=C(O)c1ccc(CS(=O)(=O)c2ccccc2C(=O)O)cc1`, for which the EC50 is over 776 µM and the IC50 was over 776 µM.

Consider `CCOC(=O)/C(C#N)=C/c1ccc(SCc2ccco2)c([N+](=O)[O-])c1`, for which the EC50 was over 200 µM and the IC50 was over 200 µM.

For the compound `O=C(NCCO)c1c(CO)n([O-])c2ccccc2[n+]1=O`, the EC50 was over 646 µM and the IC50 came out at 214 µM.

Consider `CCN(CC)Cc1nc(C2CCC([N+](=O)[O-])O2)no1` (stereo unspecified), for which the EC50 was over 200 µM and the IC50 was 72.4 µM.

In the case of `O=C1CC2C3CC4CC(C3)CC2(C4)O1` (stereo unspecified), the EC50 is over 200 µM and the IC50 is over 200 µM.

As for `CCSCC1OC2OC3C(CSCC)OC(OC4C(CSCC)OC(OC5C(CSCC)OC(OC6C(CSCC)OC(OC7C(CSCC)OC(OC8C(CSCC)OC(OC1C(OS(=O)(=O)O)C2OS(=O)(=O)O)C(OS(=O)(=O)O)C8OS(=O)(=O)O)C(OS(=O)(=O)O)C7OS(=O)(=O)O)C(OS(=O)(=O)O)C6OS(=O)(=O)O)C(OS(=O)(=O)O)C5OS(=O)(=O)O)C(OS(=O)(=O)O)C4OS(=O)(=O)O)C(OS(=O)(=O)O)C3OS(=O)(=O)O` (stereo unspecified), the EC50 was 2.75 µM and the IC50 came out at 50.1 µM.

`CCOC(=O)c1c(NS(=O)(=O)c2ccc(C)cc2)sc(C)c1-c1ccccc1`: the EC50 was over 200 µM and the 50% inhibitory concentration (IC50) amounted to 21.9 µM.

With `Nc1nc(Cl)cc(OCC2(CO)CCCC2)n1`, the EC50 is over 200 µM and the IC50 was 110 µM.

Turning to `Nc1ccc(C(=O)N/C(=C\c2cccc([N+](=O)[O-])c2)c2nc3ccccc3[nH]2)cc1`, the outcome was inactive.

As to `CCOC1c2cc(C(C)C)c(O)c(O)c2[C@@]23CCCC(C)(C)C2C1OC3=O` (stereo partly specified), the EC50 was over 200 µM and the IC50 was found to be 9.33 µM.

Take `Cc1[nH]c2c(ccc3c2ccc2c(=O)c(C)c(C)[nH]c23)c(=O)c1C`: the EC50 was over 200 µM and the IC50 was 138 µM.

As to `N#CCCN(CCC#N)Cc1c(O)c(O)c(CN(CCC#N)CCC#N)c2ccccc12`, the EC50 is 115 µM and the IC50 is 126 µM.

For `Cc1ccc(S(=O)(=O)N2CC(O)C=Cc3ccccc32)cc1` (stereo unspecified), the EC50 is over 200 µM and the IC50 is 3.16 µM.

Take `O=c1[nH]nc(Cc2ccccc2)n1C1CCCC1`: the EC50 is over 200 µM and the IC50 was over 200 µM.

Consider `Cc1ccc(C(=O)N(Cc2ccccc2)Cc2ccccc2)cc1N=NN(C)C`, for which the EC50 is over 9.77 µM and the IC50 was over 9.77 µM.

Regarding `CN(C)c1cc[n+](-c2c([O-])c3ccccc3n(-c3ccccc3)c2=O)cc1`, the EC50 was over 200 µM and the IC50 was 195 µM.

As for `Cc1ccc(C2=Nc3c(N)nc(N)nc3NC(c3ccccc3)C2)cc1` (stereo unspecified), the EC50 was over 200 µM; the IC50 is 4.27 µM and 3.72 µM.

`CN(C)CCn1c(=O)oc2cc(C(=O)CN3CCOCC3)ccc21`: the EC50 is over 200 µM and the IC50 worked out at 102 µM.

Consider `Cc1ccc(C2=Nc3ccc(F)cc3SC(C(=O)O)C2)cc1` (stereo unspecified), for which the result was inactive.

Take `CN1CC(C)(C)C(O)c2ccccc21` (stereo unspecified): the EC50 was over 955 µM and the IC50 turned out to be 525 µM.

On to `O=C(/C=C/c1ccc(OCC(=O)N2CCN(c3ccccc3)CC2)cc1)c1ccc(Cl)cc1`, for which the EC50 is over 29.5 µM and the IC50 is over 29.5 µM.

As for `O=c1c2ccc(Cl)cc2oc2c(CNc3ccc(S(=O)(=O)Nc4nccs4)cc3)cccc12`, the EC50 is over 151 µM and the IC50 is over 151 µM.
